In article PMC7915588, “Polyphyllin D Shows Anticancer Effect through a Selective Inhibition of Src Homology Region 2-Containing Protein Tyrosine Phosphatase-2 (SHP2)” (Molecules, 2021):

What was measured:
SHP2 [1] = target: T1, SHP2 (Homo sapiens, UniProt Q06124)
T1 construct: gene PTPN11
T1 sequence (Q06124 1-526): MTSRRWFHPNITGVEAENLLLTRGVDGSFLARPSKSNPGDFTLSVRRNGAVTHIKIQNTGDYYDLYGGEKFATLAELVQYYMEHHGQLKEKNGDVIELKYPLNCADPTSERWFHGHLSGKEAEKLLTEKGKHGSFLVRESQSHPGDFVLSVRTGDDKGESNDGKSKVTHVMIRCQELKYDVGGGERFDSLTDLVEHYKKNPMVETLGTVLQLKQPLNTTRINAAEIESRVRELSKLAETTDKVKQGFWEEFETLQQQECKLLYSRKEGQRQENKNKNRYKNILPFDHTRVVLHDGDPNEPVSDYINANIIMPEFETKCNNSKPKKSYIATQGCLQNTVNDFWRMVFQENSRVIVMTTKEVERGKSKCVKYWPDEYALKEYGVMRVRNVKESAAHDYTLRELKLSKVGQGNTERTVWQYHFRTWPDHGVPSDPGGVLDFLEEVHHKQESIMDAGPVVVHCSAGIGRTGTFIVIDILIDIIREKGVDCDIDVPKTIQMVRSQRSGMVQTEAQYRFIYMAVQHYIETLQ

SHP2 [2] = target: T1, SHP2; assay: DiFMUP fluorogenic phosphatase assay at […]; assay type: biochemical

Row | SMILES | Km (SHP2 [1]) [µM] | DiFMUP fluorogenic phosphatase assay at 20 μM (SHP2 [2])
1 | Cc1cc(=O)oc2c(F)c(OP(=O)(O)O)c(F)cc12 [DiFMUP] | 70 | 
2 | CC1(C)CC[C@]2(C(=O)O)CC[C@]3(C)C(=CC[C@@H]4[C@@]5(C)CC[C@H](O)C(C)(C)[C@@H]5CC[C@]43C)[C@@H]2C1 [oleanolic acid] |  | Echinocystic and oleanolic acids selectively inhibited SHP1 and SHP2 over the other PTPs tested
